Reference: patent US9296831B2, “Herbal extract composition for the treatment of diabetes and a method of extracting the same” (priority 2014, dated 2016)

Tests used:
Wistar rats = assay: Post prandial blood sugar (BS) levels in STZ-induced diabetic rats; assay type: in vivo, rat; conditions: oligosaccharide 16 mg/kg, metformin 15 mg/kg/day
Method: According to one embodiment herein, the oligosaccharide is administered to rats after purification and structural analysis of the oligosaccharide. The eight week old Wistar rats, weighing from 200-250 gm are purchased from Pasteur institute (Tehran, Iran). The animals are kept on a standard diet with free access to water and food throughout the study. All treatments and maintenance of the animals are carried out in accordance with the principles of laboratory animal care. Further diabetes is induced in the animals except the controls by a single intraperitoneal injection of STZ (60 mg/kg) freshly dissolved in citrate buffer of 5 mmol/L and a pH of 4.5. After an elapse of 48 hrs since the injection of streptozocin (STZ), the diabetes is confirmed by measuring the glucose levels in the blood samples. The blood samples are obtained from the retro-orbital sinus of the animals under diethyl ether-induced light anesthesia with GlucoDr Glucometer (Allmedicus; Germany). […] The first group comprises ten rats and is administered with the oligosaccharide. The second group comprises eight rats and the rats in the second group are injected with the citrate buffer. This group is called a negative control group. The amount of citrate buffer administered to the second group and the amount of oligosaccharide administered to the first group are same or equal. The rats in the oligosaccharide treated groups are given different doses (8-40 mg/kg) of the pure materials dissolved in distilled water twice daily for 21 days starting from the third day since the STZ injection. […] The molecules of glybenclamide or metformin are administered intraperitoneally or by oral gavage and stopped after three weeks. The water intake and urine volume are measured throughout the study. Twenty four hours after the administration of the last dose of oligosaccharide, the blood glucose is monitored in fasting and non-fasting states. The body and pancreas weights are compared. Oral glucose tolerance test, insulin tolerance test, gluconeogenesis inhibition test and alfa glucosidase inhibition tests are conducted. […] The untreated negative controls received no molecule, while the test group received oligosaccharide and the positive control received either metformin or glybenclamide. FIG. 2 illustrates a flow chart indicating the administration and testing of the anti-diabetic effect of oligosaccharide molecule, according to an embodiment herein. The process of administering and testing the antidiabetic effect of oligosaccharide molecule comprises purchasing eight week old male Wistar rats weighing 200-250 gm (201). The rats are purchased from Pasteus Institute (Tehran, Iran). The rats are kept on a standard diet with free access to water and food throughout the study. All the treatments and maintenance of the animals is carried out in accordance with the principles of laboratory animal care. Inducing diabetes by stretozotocin (STZ) 60 mg/kg injection (202). The diabetes is induced in all rats except in the rats in the control group by intraperitoneal injection of STZ freshly dissolved in 5 mmol/L citrate buffer (pH 4.5). The diabetes is confirmed 48 hrs after STZ infection by measuring blood glucose levels (203). The blood from rats is obtained from retro-orbital sinus of the animals under diethyl ether induced light anesthesia with GlucoDr Glucometer (Allmedicus; Germany). […] The rats in positive control, negative control and oligosaccharide treated group are divided into different groups (204). The rats in the negative control group are injected with citrate buffer for three weeks (205). The rats in the positive control group are injected with glybendamide and metformin for three weeks (206). The rats in the oligosaccharide group are injected with different concentration (8-40 mg/kg) of oligosaccharide for three weeks (207). The oligosaccharide is dissolved in distilled water and administered twice daily after STZ injection induced diabetes. […]

rats [1] = assay: Sub acute toxicity test, hematology, 15 days; assay type: in vivo
Method: (§1) According to one embodiment herein, the acute, sub acute and sub chronic toxicological tests are performed based on the standard protocols. For the acute sequential design procedure of LD-50, limit dose test were done and mortality rate is recorded up to 14 days. […] For the animals in the control groups, distilled water is administered by the same protocols. At the end of the time period, the rats are killed and the body specimens are collected for the determination of biochemical, hematological and pathological parameters.

rats [2] = conditions: rat, in vivo
Method: According to one embodiment herein, the acute, sub acute and sub chronic toxicological tests are performed based on the standard protocols. For the acute sequential design procedure of LD-50, limit dose test were done and mortality rate is recorded up to 14 days. Sub acute and sub chronic toxicological tests are performed by an administration of 160 mg/kg (10 folds of therapeutics dose) for 21 and 52 days respectively. For the animals in the control groups, distilled water is administered by the same protocols. At the end of the time period, the rats are killed and the body specimens are collected for the determination of biochemical, hematological and pathological parameters.

rats [3] = assay: Sub acute toxicity test, biochemistry, 15 days; assay type: in vivo
Method: as §1

[4] = 21 days after treatment, glybenclamide 5 mg/kg/day
[5] = 30 days after withdrawal of the treatment, glybenclamide 5 mg/kg/day
[6] = before treatment (baseline), glybenclamide 5 mg/kg/day groups

COc1ccc(Cl)cc1C(=O)NCCc1ccc(S(=O)(=O)NC(=O)NC2CCCCC2)cc1 [Glybenclamide, glybenclamide]
BS levels mg/dl (SD), post prandial (Wistar rats; [4]): 250(63) mg/dl
BS levels mg/dl (SD), post prandial (Wistar rats; [5]): 363(64) mg/dl
BS levels mg/dl (SD), post prandial (Wistar rats; [6]): 360(41) mg/dl

COC(=O)C1OC(O)C(O)C(O)C1OC1OC(C(=O)OC)C(OC2OC(C(=O)OC)C(OC3OC(C(=O)O)C(O)C(O)C3O)C(O)C2OC(C)=O)C(O)C1O (centres unmarked) [Oligosaccharide]
HCT (rats [1]; 16 mg/kg): 42.8 ± 2.9%
Hb (rats [1]; 16 mg/kg): 14.3 ± 0.6 g/dL
MCH (rats [1]; 16 mg/kg): 18.1 ± 4.9 pg
MCHC (rats [1]; 16 mg/kg): 33.8 ± 4.7 g/dL
MCV (rats [1]; 16 mg/kg): 54.51 ± 3.2 fL
PLT (rats [1]; 16 mg/kg): 9.4 ± 1.3 ×105/ml
RBC (rats [1]; 16 mg/kg): 8.08 ± 1.3 ×106/ml
WBC (rats [1]; 16 mg/kg): 10.5 ± 3.3 ×103/ml
HCT (rats [1]; 160 mg/kg): 42.6 ± 1.1%
Hb (rats [1]; 160 mg/kg): 14.1 ± 0.3 g/dL
MCH (rats [1]; 160 mg/kg): 18.3 ± 3.9 pg
MCHC (rats [1]; 160 mg/kg): 33.9 ± 5.1 g/dL
MCV (rats [1]; 160 mg/kg): 55.9 ± 2.5 fL
PLT (rats [1]; 160 mg/kg): 9.3 ± 2.1 ×105/ml
RBC (rats [1]; 160 mg/kg): 7.98 ± 1.9 ×106/ml
WBC (rats [1]; 160 mg/kg): 8.9 ± 2.9 ×103/ml
abnormality in pathologic studies (rats [2]): no abnormality is observed
BS levels mg/dl (SD), post prandial (Wistar rats; [4]): 150(21) mg/dl
BS levels mg/dl (SD), post prandial (Wistar rats; [5]): 144(18) mg/dl
BS levels mg/dl (SD), post prandial (Wistar rats; [6]): 364(41) mg/dl
ALP (rats [3]; 16 mg/kg): 442.69 ± 90.54 u/l
ALT (rats [3]; 16 mg/kg): 146.33 ± 18.41 u/l
AST (rats [3]; 16 mg/kg): 169.41 ± 17.5 u/l
Alb (rats [3]; 16 mg/kg): 3.22 ± 0.04 g/dL
CPK (rats [3]; 16 mg/kg): 1341.5 ± 311.12 u/l
Chol (rats [3]; 16 mg/kg): 82.15 ± 22.11 mg/dL
Cr (rats [3]; 16 mg/kg): 0.66 ± 0.02 mg/dL
Glucose (rats [3]; 16 mg/kg): 113.61 ± 16.4 mg/dL
LDH (rats [3]; 16 mg/kg): 2019.7 ± 390.4 u/l
TG (rats [3]; 16 mg/kg): 98.41 ± 15.63 mg/dL
Urea (rats [3]; 16 mg/kg): 54.71 ± 9.98 mg/dL
Uric acid (rats [3]; 16 mg/kg): 1.62 ± 0.32 mg/dL
ALP (rats [3]; 160 mg/kg): 351.37 ± 63.21 u/l
ALT (rats [3]; 160 mg/kg): 142.31 ± 21.32 u/l
AST (rats [3]; 160 mg/kg): 177.51 ± 24.2 u/l
Alb (rats [3]; 160 mg/kg): 3.24 ± 0.05 g/dL
CPK (rats [3]; 160 mg/kg): 1398.3 ± 115.5 u/l
Chol (rats [3]; 160 mg/kg): 81.11 ± 14.31 mg/dL
Cr (rats [3]; 160 mg/kg): 0.65 ± 0.04 mg/dL
Glucose (rats [3]; 160 mg/kg): 109.3 ± 10.4 mg/dL
LDH (rats [3]; 160 mg/kg): 2110.5 ± 504.7 u/l
TG (rats [3]; 160 mg/kg): 97.99 ± 17.49 mg/dL
Urea (rats [3]; 160 mg/kg): 54.87 ± 6.63 mg/dL
Uric acid (rats [3]; 160 mg/kg): 1.58 ± 0.25 mg/dL

CN(C)C(=N)N=C(N)N [Metformin, metformin]
BS levels mg/dl (SD), post prandial (Wistar rats; [4]): 261(49) mg/dl
BS levels mg/dl (SD), post prandial (Wistar rats; [5]): 375(59) mg/dl
BS levels mg/dl (SD), post prandial (Wistar rats; [6]): 375(57)(20) mg/dl
